In paper PMC4710668, “Bioactivation of food genotoxicants 5-hydroxymethylfurfural and furfuryl alcohol by sulfotransferases from human, mouse and rat: a comparative study” (Archives of Toxicology, 2014):

Key:
Assay in all cases: HMF sulfoconjugation assay
Assay type in all cases: biochemical
rSult1a1 = biological target: T1, rSult1a1 (Rattus norvegicus, UniProt P17988)
T1 construct: made in house; host or cells: Salmonella typhimurium TA1538 (cytosolic fraction, enzyme not purified)
How it was run: (§1)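 HMF at different concentrations was sulfated by SULT-expressing S. typhimurium cytosol with 50 µM PAPS. Incubation ran 30 min at 37 °C under linear conditions, and SMF was quantified by UPLC-MS/MS.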

mSult1c2 = biological target: T2, mSult1c2 (Mus musculus, UniProt Q9D939)
T2 construct: made in house; host or cells: Salmonella typhimurium TA1538 (cytosolic fraction, enzyme not purified)
T2 sequence (Q9D939 whole entry): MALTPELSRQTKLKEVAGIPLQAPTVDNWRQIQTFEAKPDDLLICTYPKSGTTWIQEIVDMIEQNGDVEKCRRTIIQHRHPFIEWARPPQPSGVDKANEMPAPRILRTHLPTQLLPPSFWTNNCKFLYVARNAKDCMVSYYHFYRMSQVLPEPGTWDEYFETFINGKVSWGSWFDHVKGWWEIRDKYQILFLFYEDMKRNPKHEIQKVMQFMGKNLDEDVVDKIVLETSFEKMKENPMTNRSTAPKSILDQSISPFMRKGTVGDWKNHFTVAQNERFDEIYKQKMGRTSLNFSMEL
How it was run: as §1

rSult1c2 = biological target: T3, rSult1c2 (Rattus norvegicus, UniProt Q9WUW8)
T3 construct: made in house; host or cells: Salmonella typhimurium TA1538 (cytosolic fraction, enzyme not purified)
T3 sequence (Q9WUW8 whole entry): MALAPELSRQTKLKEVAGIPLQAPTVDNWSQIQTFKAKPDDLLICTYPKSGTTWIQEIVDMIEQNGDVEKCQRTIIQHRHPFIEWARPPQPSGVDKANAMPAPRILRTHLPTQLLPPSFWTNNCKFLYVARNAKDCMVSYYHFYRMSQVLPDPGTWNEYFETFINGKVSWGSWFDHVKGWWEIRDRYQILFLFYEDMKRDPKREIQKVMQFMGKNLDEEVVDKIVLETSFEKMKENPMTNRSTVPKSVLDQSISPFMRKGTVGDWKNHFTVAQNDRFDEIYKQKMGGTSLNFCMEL
How it was run: as §1

hSULT4A1 = biological target: T4, hSULT4A1 (Homo sapiens, UniProt Q9BR01)
T4 construct: made in house; host or cells: Salmonella typhimurium TA1538 (cytosolic fraction, not purified)
T4 sequence (Q9BR01 1-284): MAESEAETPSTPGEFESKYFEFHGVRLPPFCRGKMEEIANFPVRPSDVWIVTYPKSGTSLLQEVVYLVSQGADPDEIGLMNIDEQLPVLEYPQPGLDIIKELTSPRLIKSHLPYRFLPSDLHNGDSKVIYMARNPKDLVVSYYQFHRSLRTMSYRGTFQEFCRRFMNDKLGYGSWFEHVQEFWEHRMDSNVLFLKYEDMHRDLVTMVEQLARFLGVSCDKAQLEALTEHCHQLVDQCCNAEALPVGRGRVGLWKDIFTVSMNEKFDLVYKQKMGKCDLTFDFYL
How it was run: as §1

mSult1d1 = biological target: T5, mSult1d1 (Mus musculus, UniProt Q3UZZ6)
T5 construct: made in house; host or cells: Salmonella typhimurium TA1538 (cytosolic fraction, enzyme not purified)
T5 sequence (Q3UZZ6 whole entry): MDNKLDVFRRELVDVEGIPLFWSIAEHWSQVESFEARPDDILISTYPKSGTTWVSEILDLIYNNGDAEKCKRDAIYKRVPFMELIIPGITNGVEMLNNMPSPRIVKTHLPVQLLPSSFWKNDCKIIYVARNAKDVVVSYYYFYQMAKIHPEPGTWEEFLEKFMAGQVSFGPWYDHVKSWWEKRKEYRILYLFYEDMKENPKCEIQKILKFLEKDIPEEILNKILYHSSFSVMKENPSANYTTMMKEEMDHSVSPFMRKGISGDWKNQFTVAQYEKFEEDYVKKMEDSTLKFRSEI
How it was run: as §1

hSULT1E1 = biological target: T6, hSULT1E1 (Homo sapiens, UniProt P49888)
T6 construct: made in house; host or cells: Salmonella typhimurium TA1538 (cytosolic fraction, not purified)
T6 sequence (P49888 1-294): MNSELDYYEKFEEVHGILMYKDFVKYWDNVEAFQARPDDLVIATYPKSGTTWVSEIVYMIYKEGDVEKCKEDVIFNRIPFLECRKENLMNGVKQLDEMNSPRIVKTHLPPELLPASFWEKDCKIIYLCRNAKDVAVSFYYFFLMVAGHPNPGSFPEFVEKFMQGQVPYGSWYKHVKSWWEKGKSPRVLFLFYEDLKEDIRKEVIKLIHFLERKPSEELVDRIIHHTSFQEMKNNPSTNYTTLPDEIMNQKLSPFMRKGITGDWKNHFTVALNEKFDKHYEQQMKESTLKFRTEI
How it was run: as §1

[1] = HMF sulfoconjugation, Michaelis-Menten fit

T1 sequence (P17988 whole entry): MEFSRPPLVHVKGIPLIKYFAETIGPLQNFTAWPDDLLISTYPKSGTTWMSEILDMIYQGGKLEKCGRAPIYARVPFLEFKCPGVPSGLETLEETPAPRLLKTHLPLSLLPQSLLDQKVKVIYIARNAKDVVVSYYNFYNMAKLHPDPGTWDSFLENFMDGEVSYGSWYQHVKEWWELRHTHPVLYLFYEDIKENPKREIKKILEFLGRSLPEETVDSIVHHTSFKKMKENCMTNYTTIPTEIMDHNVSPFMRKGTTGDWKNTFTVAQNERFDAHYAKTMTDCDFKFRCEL

O=Cc1ccc(CO)o1 [HMF, 5-Hydroxymethylfurfural]
Rate of sulfoconjugation (rSult1a1; 0.1 mM HMF): <0.5 pmol/mg/min | Rate of sulfoconjugation (rSult1a1; 1 mM HMF): 6.5 ± 2.1 pmol/mg/min | Rate of sulfoconjugation (rSult1a1; 10 mM HMF): 43.6 ± 13.7 pmol/mg/min | Rate of sulfoconjugation (rSult1a1; 100 mM HMF): 36.1 ± 16.8 pmol/mg/min | K M (rSult1a1; [1]): 4.9 ± 0.7 mM | Rate of sulfoconjugation (mSult1c2; 0.1 mM HMF): <0.5 pmol/mg/min | Rate of sulfoconjugation (mSult1c2; 1 mM HMF): 2.0 ± 0.2 pmol/mg/min | Rate of sulfoconjugation (mSult1c2; 10 mM HMF): 16.2 ± 1.1 pmol/mg/min | Rate of sulfoconjugation (mSult1c2; 100 mM HMF): 92.4 ± 6.7 pmol/mg/min | Rate of sulfoconjugation (rSult1c2; 0.1 mM HMF): <0.5 pmol/mg/min | Rate of sulfoconjugation (rSult1c2; 1 mM HMF): <0.5 pmol/mg/min | Rate of sulfoconjugation (rSult1c2; 10 mM HMF): 2.3 ± 0.2 pmol/mg/min | Rate of sulfoconjugation (rSult1c2; 100 mM HMF): 15.0 ± 1.1 pmol/mg/min | Rate of sulfoconjugation (hSULT4A1; 0.1 mM HMF): <0.5 pmol/mg/min | Rate of sulfoconjugation (hSULT4A1; 1 mM HMF): <0.5 pmol/mg/min | Rate of sulfoconjugation (hSULT4A1; 10 mM HMF): <0.5 pmol/mg/min | Rate of sulfoconjugation (hSULT4A1; 100 mM HMF): <0.5 pmol/mg/min | Rate of sulfoconjugation (mSult1d1; 0.1 mM HMF): 124 ± 33 pmol/mg/min | Rate of sulfoconjugation (mSult1d1; 1 mM HMF): 1,160 ± 260 pmol/mg/min | Rate of sulfoconjugation (mSult1d1; 10 mM HMF): 6,750 ± 1,190 pmol/mg/min | Rate of sulfoconjugation (mSult1d1; 100 mM HMF): 22,400 ± 2,400 pmol/mg/min | K M (mSult1d1; [1]): 31.9 ± 5.7 mM | Rate of sulfoconjugation (hSULT1E1; 0.1 mM HMF): <0.5 pmol/mg/min | Rate of sulfoconjugation (hSULT1E1; 1 mM HMF): 1.0 ± 0.2 pmol/mg/min | Rate of sulfoconjugation (hSULT1E1; 10 mM HMF): 5.7 ± 0.8 pmol/mg/min | Rate of sulfoconjugation (hSULT1E1; 100 mM HMF): 7.7 ± 1.2 pmol/mg/min
